Measured values: patent publication US7582312B2, “Methods to produce lung surfactant formulations via lyophilization and formulations and uses thereof” (Discovery Laboratories, Inc., priority 2004, dated 2009)
Values after ≈ are worked out from the molar mass of the structure shown. Where no end group is shown, it is not given here.

Key:
[1] = Individual component solubilities in t-butanol/water solutions (HPLC); details: about 37° C.; for solubility at 30 min: 37 °C, thermodynamic from solid
[2] = Achievable dissolution concentrations of components in 60% TBA cosolvent without NaCl; details: for Measured Concentration, 1: replicate 1; for Measured Concentration, 2: replicate 2; for Measured Concentration, 3: replicate 3; for Measured Concentration, AVG: room temperature, individual component
physchem = details: 37 °C, aqueous with cosolvent or surfactant or cyclodextrin, thermodynamic from solid
[3] = 50% t-butanol in water, aqueous with cosolvent or surfactant or cyclodextrin
[4] = 80% t-butanol in water, organic solvent or mixture
[5] = 90% t-butanol in water, organic solvent or mixture
[6] = 95% t-butanol in water, organic solvent or mixture
[7] = 100% t-butanol, organic solvent or mixture

| solubility at 30 min [1, 3] | solubility at 30 min [1, 4] | solubility at 30 min [1, 5] | solubility at 30 min [1, 6] | solubility at 30 min [1, 7] | Measured Concentration, 1 [2] | Measured Concentration, 2 [2] | Measured Concentration, 3 [2] | Measured Concentration, AVG [2] | Solubility ([1]; 50% t-butanol in water) | Solubility ([1]; 80% t-butanol in water) | Solubility ([1]; 90% t-butanol in water) | Solubility ([1]; 95% t-butanol in water) | Solubility ([1]; 97.5% t-butanol in water) | Solubility ([1]; 99% t-butanol in water) | Solubility ([1]; 100% t-butanol) | Solubility (physchem) | Molecule |
| --- | --- | --- | --- | --- | --- | --- | --- | --- | --- | --- | --- | --- | --- | --- | --- | --- | --- |
| 14 mg/mL (≈ 57.7 mM) | > 224 mg/mL | > 229 mg/mL | > 251 mg/mL | > 270 mg/mL | – | – | – | – | – | – | – | – | – | – | – | – | CCCCCCCCCCCCCCCCO [CA, cetyl alcohol] |
| > 49 mg/mL | > 133 mg/mL | > 145 mg/mL | > 150 mg/mL | > 150 mg/mL | 34.8 mg/mL | 35.0 mg/mL | 35.2 mg/mL | 35.0 mg/mL | – | – | – | – | – | – | – | – | CCCCCCCCCCCCCCCC(=O)OC[C@H](COP(=O)([O-])OCC[N+](C)(C)C)OC(=O)CCCCCCCCCCCCCCC [DPPC, dipalmitoyl phosphatidylcholine] |
| – | – | – | – | – | 298.4 mg/mL | 283.7 mg/mL | 290.6 mg/mL | 290.9 mg/mL | >47 mg/mL | >119 mg/mL | >160 mg/mL | 34 mg/mL (≈ 45.4 mM) | 20 mg/mL (≈ 26.7 mM) | <5 mg/mL | <5 mg/mL | – | CCCCCCCC/C=C\CCCCCCCC(=O)O[C@H](COC(=O)CCCCCCCCCCCCCCC)COP(=O)(O)OCC(O)CO (some centres unmarked) [POPG, palmitoyloleoyl phosphatidylglycerol] |
| – | – | – | – | – | – | – | – | – | – | – | – | – | – | – | – | > 67 mg/mL | KLLLLKLLLLKLLLLKLLLLK [KL4] |
